Test results: the NIST ThermoML archive (doi:10.1016/j.fluid.2012.09.001)
Where “and” joins values, the source holds several entries; their conditions need not be identical. Equal entries are not always repeated.

Experiment: molar heat capacity at constant pressure
Conditions: 101.33 kPa, Liquid, Flow calorimetry

CC(Cl)CCl (configuration not stated) [1,2-dichloropropane]
Conditions	molar heat capacity at constant pressure
268.3 K	153.32 J/K/mol and 152.99 J/K/mol
278.51 K	154.15 J/K/mol and 153.9 J/K/mol
288.72 K	155.4 J/K/mol and 155.15 J/K/mol
298.93 K	156.81 J/K/mol and 156.64 J/K/mol
309.14 K	158.06 J/K/mol and 157.73 J/K/mol
319.35 K	159.39 J/K/mol and 159.22 J/K/mol
329.56 K	161.05 J/K/mol and 161.22 J/K/mol
339.77 K	162.8 J/K/mol

CCC(Cl)Cl [1,1-dichloropropane]
Conditions	molar heat capacity at constant pressure
268.3 K	148.83 J/K/mol and 149.66 J/K/mol
268.31 K	149.49 J/K/mol
278.51 K	150.33 J/K/mol and 150.24 J/K/mol and 149.99 J/K/mol
288.72 K	151.82 J/K/mol and 151.99 J/K/mol and 152.4 J/K/mol
298.93 K	152.82 J/K/mol and 153.65 J/K/mol
309.14 K	155.23 J/K/mol and 154.57 J/K/mol and 154.15 J/K/mol
319.35 K	155.9 J/K/mol and 157.73 J/K/mol and 155.56 J/K/mol
329.56 K	157.23 J/K/mol and 157.31 J/K/mol and 157.64 J/K/mol
339.77 K	158.97 J/K/mol and 159.06 J/K/mol and 159.31 J/K/mol

ClC=C(Cl)Cl [trichloroethene]
Conditions	molar heat capacity at constant pressure
260.64 K	126.71 J/K/mol and 126.63 J/K/mol
265.75 K	126.71 J/K/mol and 126.8 J/K/mol and 126.96 J/K/mol
270.85 K	126.96 J/K/mol [middle of 4 runs]
275.96 K	127.13 J/K/mol [middle of 4 runs]
281.06 K	127.38 J/K/mol and 127.46 J/K/mol and 127.79 J/K/mol
286.17 K	127.96 J/K/mol and 127.88 J/K/mol and 128.38 J/K/mol
291.27 K	128.38 J/K/mol [middle of 4 runs]
296.38 K	128.54 J/K/mol [middle of 4 runs]
301.48 K	128.96 J/K/mol [middle of 4 runs]
309.14 K	129.21 J/K/mol and 129.04 J/K/mol and 130.29 J/K/mol
319.35 K	130.29 J/K/mol and 131.12 J/K/mol
329.56 K	130.95 J/K/mol and 131.12 J/K/mol

CC(C)(Cl)Cl [2,2-dichloropropane]
Conditions	molar heat capacity at constant pressure
260.64 K	150.33 J/K/mol and 150.49 J/K/mol and 150.24 J/K/mol
268.3 K	151.41 J/K/mol and 151.24 J/K/mol and 150.99 J/K/mol
278.52 K	152.32 J/K/mol and 152.24 J/K/mol
288.72 K	153.98 J/K/mol and 153.82 J/K/mol and 154.07 J/K/mol
298.93 K	155.65 J/K/mol and 154.98 J/K/mol
309.14 K	157.39 J/K/mol and 157.14 J/K/mol and 156.98 J/K/mol
319.35 K	159.22 J/K/mol and 158.81 J/K/mol and 158.89 J/K/mol
329.56 K	161.13 J/K/mol and 160.22 J/K/mol

Cl/C=C/Cl [(E)-1,2-dichloroethene]
Conditions	molar heat capacity at constant pressure
268.3 K	112.74 J/K/mol [middle of 4 runs]
278.51 K	112.83 J/K/mol [middle of 4 runs]
288.72 K	113.41 J/K/mol [middle of 4 runs]
298.93 K	113.99 J/K/mol [middle of 4 runs]
309.14 K	114.49 J/K/mol [middle of 4 runs]

Cl/C=C\Cl [(Z)-1,2-dichloroethene]
Conditions	molar heat capacity at constant pressure
258.09 K	110.33 J/K/mol and 110.08 J/K/mol
263.2 K	110.33 J/K/mol and 110.42 J/K/mol
268.3 K	110.58 J/K/mol and 110.75 J/K/mol
273.41 K	111 J/K/mol
278.51 K	111.08 J/K/mol and 111 J/K/mol
283.62 K	111.41 J/K/mol and 111.58 J/K/mol
288.72 K	111.91 J/K/mol and 111.75 J/K/mol
293.83 K	112.58 J/K/mol [middle of 4 runs]
298.93 K	112.99 J/K/mol and 112.66 J/K/mol and 112.49 J/K/mol
304.04 K	113.41 J/K/mol and 113.49 J/K/mol
309.14 K	113.91 J/K/mol and 113.74 J/K/mol

ClC(Cl)(Cl)c1ccccc1 [(trichloromethyl)benzene]
Conditions	molar heat capacity at constant pressure
260.64 K	209.61 J/K/mol and 209.36 J/K/mol and 209.11 J/K/mol
265.75 K	210.94 J/K/mol and 210.44 J/K/mol and 210.27 J/K/mol
270.85 K	211.44 J/K/mol and 211.35 J/K/mol and 211.19 J/K/mol
275.96 K	212.52 J/K/mol and 212.77 J/K/mol
281.06 K	214.18 J/K/mol and 213.93 J/K/mol
286.17 K	215.59 J/K/mol and 215.34 J/K/mol
291.27 K	217.09 J/K/mol and 217.01 J/K/mol and 216.92 J/K/mol
296.38 K	217.76 J/K/mol and 217.92 J/K/mol and 218.01 J/K/mol
301.48 K	219.34 J/K/mol and 219.17 J/K/mol and 219.25 J/K/mol
309.14 K	220.75 J/K/mol
319.35 K	223.83 J/K/mol
329.56 K	226.49 J/K/mol
339.77 K	228.56 J/K/mol
349.98 K	230.89 J/K/mol
